Data published in ChEMBL document CHEMBL1201862, “PubChem BioAssay data set” (2004).
Calls of active or inactive are those of the source.

Columns and labels:
[1] = luciferase reporter signal reduction – luminescence, H4-C neuroglioblastoma cells, dose response (AID 2458); type: functional, cell-based;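 also: H4 neuroglioblastoma cells stably carrying a luciferase reporter gene fusion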
[2] = Luminescence Cell-Based Dose Response HTS to Identify Inhibitors of 5'UTR Stem-Loop Driven Prion Protein mRNA Translation in H4 Neuroglioblastoma Cells. [Related pubchem assays: 1827 (Project Summary), 1813 (Primary HTS)]; type: functional
cells [3] = type: functional, cell-based
[4] = alpha-synuclein stem-loop luciferase translation blockers – H4 neuroglioma cells, luminescence, confirmation (AID 1988); type: functional, cell-based
[5] = alpha-synuclein stem-loop translation blockers – luminescence, H4 neuroglioblastoma cells, dose confirmation, confirmation (AID 2454); type: functional, cell-based;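 also: H4 neuroglioblastoma cells carrying an alpha-synuclein 5'UTR luciferase reporter; potency for inhibition of the luciferase signal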
[6] = luciferase reporter signal suppression in cells – H4 neuroglioma cells, luminescence, dose response (AID 1990); type: functional, cell-based
[7] = target: T1, Heat shock factor protein 1 (Mus musculus, UniProt P38532); assay: decrease of HSF1-responsive luciferase luminescence – cell-based, NIH3T3, dose retest, confirmation (AID 2382); type: functional;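 also: NIH3T3 fibroblasts with HSF1-driven luciferase reporter stressed by proteasome inhibitor MG132; luminescence from HSF1-driven luciferase expression after 8 hours of MG132 stress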
T1 sequence (P38532 whole entry): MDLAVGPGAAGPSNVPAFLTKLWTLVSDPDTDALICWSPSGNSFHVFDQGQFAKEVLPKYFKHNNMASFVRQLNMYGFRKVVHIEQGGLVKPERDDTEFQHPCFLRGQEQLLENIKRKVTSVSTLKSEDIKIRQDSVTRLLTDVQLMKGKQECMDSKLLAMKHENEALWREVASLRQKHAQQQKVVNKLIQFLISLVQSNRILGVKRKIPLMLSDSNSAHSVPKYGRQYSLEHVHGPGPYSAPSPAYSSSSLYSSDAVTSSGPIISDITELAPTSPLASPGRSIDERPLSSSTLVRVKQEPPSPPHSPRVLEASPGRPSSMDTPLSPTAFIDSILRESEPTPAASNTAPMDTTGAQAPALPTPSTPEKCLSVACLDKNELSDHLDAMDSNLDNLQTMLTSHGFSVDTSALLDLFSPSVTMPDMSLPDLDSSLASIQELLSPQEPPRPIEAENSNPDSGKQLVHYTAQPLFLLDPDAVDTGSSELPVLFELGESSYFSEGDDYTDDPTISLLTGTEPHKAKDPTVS

[8] = HEK-293T viability loss after treatment – luminescence, T-cell screen hits, cytotoxicity control for TCR NF-kB inhibitor project, dose response (AID 489026); type: functional, cell-based;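 also: cells exposed to compound about 14 hours before the viability readout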
[9] = target: T2, Neuropeptide Y receptor type 2 (Homo sapiens, UniProt P49146); type: functional, cell-based;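 also: HEK293 cells expressing the receptor and a CNG channel; stimulus was NPY near EC95 followed by isoproterenol to raise cAMP; antagonist potency measured as restoring cAMP signal that NPY suppresses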
T2 sequence (P49146 whole entry): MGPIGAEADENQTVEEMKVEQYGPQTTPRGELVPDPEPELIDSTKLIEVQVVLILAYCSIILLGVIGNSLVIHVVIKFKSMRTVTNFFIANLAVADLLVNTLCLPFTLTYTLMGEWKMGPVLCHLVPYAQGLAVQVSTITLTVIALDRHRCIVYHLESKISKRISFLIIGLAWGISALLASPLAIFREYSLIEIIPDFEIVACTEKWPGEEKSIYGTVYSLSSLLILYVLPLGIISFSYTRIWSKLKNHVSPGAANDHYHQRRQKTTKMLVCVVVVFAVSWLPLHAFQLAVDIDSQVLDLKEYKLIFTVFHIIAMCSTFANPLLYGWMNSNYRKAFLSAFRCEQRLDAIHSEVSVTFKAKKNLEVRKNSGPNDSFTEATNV

[10] = target: T3, Neuropeptide Y receptor type 1 (Homo sapiens, UniProt P25929); type: functional;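 also: HEK293 cells with a CNG channel challenged with NPY then isoproterenol; potency as antagonist that reverses NPY suppression of cAMP signal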
T3 sequence (P25929 whole entry): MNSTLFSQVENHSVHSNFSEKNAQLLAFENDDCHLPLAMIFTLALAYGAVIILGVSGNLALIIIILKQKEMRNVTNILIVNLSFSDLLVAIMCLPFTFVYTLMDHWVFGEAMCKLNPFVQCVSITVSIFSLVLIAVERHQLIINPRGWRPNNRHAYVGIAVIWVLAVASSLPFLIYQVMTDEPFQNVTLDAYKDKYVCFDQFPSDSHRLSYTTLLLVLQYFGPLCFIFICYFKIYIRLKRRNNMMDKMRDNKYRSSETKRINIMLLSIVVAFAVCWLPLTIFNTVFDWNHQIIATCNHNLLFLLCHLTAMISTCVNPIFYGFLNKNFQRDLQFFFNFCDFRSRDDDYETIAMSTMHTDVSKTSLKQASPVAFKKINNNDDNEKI

[11] = HepG2 cell cytotoxicity, dose response, cytotoxicity control for non-replicating M. tuberculosis project (AID 489018); type: functional; settings: Mycobacterium tuberculosis
cells [12] = type: functional
[13] = THP-1 cell cytotoxicity, dose response, cytotoxicity control for non-replicating M. tuberculosis project (AID 489025); type: functional
Trypsin = Trypsin (Sus scrofa, UniProt P00761); assay: trypsin protease activity blockade – biochemical, quenched peptide fluorescence, cherry-pick, selectivity assay for Rce1 protease inhibitor project, dose response (AID 488789)
HT-1080 = assay: HT1080 cell viability loss – fluorescence readout (AID 620); type: functional, cell-based; settings: Homo sapiens
[14] = target: T4, Rac GTPase-activating protein 1 (Homo sapiens, UniProt Q9H0H5); assay: blockers of MgcRacGAP-driven Rac1 GTP hydrolysis – biochemical, ADP Hunter fluorescence, primary and confirmatory, confirmation (AID 624330); type: functional
T4 sequence (Q9H0H5 whole entry): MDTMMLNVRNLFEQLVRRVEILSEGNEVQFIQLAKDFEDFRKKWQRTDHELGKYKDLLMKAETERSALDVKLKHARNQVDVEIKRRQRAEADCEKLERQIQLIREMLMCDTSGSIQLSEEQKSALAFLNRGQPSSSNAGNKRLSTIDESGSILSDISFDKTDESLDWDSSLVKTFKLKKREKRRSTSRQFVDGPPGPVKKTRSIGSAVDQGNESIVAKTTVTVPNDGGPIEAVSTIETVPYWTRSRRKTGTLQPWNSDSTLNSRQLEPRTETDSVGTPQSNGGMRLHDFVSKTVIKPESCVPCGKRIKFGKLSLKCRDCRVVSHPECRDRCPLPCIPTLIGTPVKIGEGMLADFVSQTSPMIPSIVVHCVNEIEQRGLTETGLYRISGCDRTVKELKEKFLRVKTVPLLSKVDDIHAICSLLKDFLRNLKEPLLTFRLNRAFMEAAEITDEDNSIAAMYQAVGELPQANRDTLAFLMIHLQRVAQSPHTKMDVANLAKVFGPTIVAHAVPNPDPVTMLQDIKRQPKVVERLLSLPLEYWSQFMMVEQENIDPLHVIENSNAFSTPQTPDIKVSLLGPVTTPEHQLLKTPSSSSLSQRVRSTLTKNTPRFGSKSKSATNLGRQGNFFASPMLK

[15] = target: T5, Luciferin 4-monooxygenase (Photinus pyralis, UniProt P08659); assay: Counter Screen for Luciferase-based Assay Positives. [Related pubchem assays: 620, 618, 411 ]
[16] = reduction of Shn3 3'UTR-driven luciferase in osteoblasts – cell-based, Clone20 osteoblasts, firefly luciferase, cherry-picked, dose response (AID 624132); type: functional;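 also: firefly luciferase luminescence from reporter carrying the Shn3 3'UTR in osteoblasts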
[17] = Luminescence Cell-Based Dose Confirmation HTS to Identify Inhibitors of Platelet Dense Granule Release. [Related pubchem assays: 1663 (Primary HTS), 1678 (Summary of Project)]; type: functional
[18] = target: T5, Luciferin 4-monooxygenase; assay: inhibition of purified Photinus pyralis luciferase – biochemical, luminescence, dose response (AID 1891)
[19] = loss of viability in HepG2 cells – cell-based, CellTiter-Glo, cherry-picked, cytotoxicity control for Shn3 inhibitor project, dose response (AID 624134); type: functional
HEK293 = assay: EBV LMP1 TES2 canonical NF-kB signalling blockers – cell-based, HEK293, luciferase, cherry-pick, dose response (AID 588343); type: functional; settings: Homo sapiens
Aminopeptidase N = target: T6, Aminopeptidase N (Plasmodium falciparum FcB1/Columbia, UniProt O96935); assay: malaria alanyl aminopeptidase activity blockers – biochemical, fluorogenic H-Leu-NHMec substrate, 1536-well (AID 1445); design: species or system Plasmodium falciparum 3D7, 3D7
T6 sequence (O96935 whole entry): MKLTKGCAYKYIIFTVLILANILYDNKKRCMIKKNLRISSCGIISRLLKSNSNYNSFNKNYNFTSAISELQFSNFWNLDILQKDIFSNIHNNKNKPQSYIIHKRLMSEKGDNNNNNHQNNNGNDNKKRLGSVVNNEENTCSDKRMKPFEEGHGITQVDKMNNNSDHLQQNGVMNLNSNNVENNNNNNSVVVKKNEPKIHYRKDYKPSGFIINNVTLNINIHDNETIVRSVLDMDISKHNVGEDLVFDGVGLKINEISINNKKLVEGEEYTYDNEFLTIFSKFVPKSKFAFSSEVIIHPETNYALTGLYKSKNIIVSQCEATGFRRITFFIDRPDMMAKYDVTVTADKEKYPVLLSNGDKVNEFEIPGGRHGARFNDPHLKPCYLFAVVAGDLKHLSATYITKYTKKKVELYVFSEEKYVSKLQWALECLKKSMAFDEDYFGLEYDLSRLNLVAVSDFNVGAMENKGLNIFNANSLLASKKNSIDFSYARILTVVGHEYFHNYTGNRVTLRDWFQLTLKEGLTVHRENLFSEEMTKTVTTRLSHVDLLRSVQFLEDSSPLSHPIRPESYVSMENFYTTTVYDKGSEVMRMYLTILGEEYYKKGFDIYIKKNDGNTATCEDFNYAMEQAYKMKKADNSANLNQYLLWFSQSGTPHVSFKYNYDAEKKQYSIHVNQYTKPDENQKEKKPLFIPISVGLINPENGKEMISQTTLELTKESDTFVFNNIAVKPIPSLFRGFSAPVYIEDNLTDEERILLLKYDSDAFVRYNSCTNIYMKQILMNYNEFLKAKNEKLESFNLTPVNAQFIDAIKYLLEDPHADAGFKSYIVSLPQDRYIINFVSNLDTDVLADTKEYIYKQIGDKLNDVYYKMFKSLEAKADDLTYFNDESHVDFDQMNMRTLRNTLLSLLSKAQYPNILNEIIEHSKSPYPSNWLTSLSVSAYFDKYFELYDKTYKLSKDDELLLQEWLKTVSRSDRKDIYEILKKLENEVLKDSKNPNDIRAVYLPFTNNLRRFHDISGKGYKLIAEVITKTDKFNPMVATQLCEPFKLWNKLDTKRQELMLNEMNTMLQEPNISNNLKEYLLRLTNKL

[20] = target: T7, Voltage-gated N-type calcium channel alpha-1B subunit/Amyloid beta A4 precursor protein-binding family A member 1 (Homo sapiens, UniProt Q00975+Q02410); type: protein assay
[21] = target: T7, Voltage-gated N-type calcium channel alpha-1B subunit/Amyloid beta A4 precursor protein-binding family A member 1; type: protein assay; remark: listed apart in the source
[22] = target: T8, Calpain-2 catalytic subunit (Sus scrofa, UniProt P43367); assay: m-calpain protease blockers, concentration series – biochemical, fluorogenic peptide substrate, dose response (AID 1420); type: functional
T8 sequence (P43367 whole entry): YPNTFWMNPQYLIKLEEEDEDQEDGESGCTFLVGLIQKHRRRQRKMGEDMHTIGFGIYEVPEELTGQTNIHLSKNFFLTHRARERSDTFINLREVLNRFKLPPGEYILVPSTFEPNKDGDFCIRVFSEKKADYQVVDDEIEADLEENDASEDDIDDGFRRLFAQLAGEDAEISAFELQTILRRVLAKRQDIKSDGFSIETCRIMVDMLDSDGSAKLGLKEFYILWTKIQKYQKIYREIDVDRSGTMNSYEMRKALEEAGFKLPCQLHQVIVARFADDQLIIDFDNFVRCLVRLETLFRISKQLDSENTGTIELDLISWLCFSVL

T5 sequence (P08659 whole entry): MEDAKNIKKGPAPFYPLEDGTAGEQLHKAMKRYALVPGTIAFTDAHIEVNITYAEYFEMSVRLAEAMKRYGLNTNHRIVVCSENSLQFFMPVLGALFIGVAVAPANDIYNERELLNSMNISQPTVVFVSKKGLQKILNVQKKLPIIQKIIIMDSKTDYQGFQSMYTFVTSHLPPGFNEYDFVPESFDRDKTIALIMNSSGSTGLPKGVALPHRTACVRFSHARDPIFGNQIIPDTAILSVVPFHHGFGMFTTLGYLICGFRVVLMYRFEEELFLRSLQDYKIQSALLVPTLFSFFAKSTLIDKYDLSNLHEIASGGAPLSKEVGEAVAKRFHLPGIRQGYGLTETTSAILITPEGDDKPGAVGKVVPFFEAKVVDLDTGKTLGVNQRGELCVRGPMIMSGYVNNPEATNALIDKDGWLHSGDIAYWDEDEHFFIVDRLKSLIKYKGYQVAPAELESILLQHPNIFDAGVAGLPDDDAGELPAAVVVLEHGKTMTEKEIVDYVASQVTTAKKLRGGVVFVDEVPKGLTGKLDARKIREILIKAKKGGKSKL
T7 sequence (Q00975 whole entry): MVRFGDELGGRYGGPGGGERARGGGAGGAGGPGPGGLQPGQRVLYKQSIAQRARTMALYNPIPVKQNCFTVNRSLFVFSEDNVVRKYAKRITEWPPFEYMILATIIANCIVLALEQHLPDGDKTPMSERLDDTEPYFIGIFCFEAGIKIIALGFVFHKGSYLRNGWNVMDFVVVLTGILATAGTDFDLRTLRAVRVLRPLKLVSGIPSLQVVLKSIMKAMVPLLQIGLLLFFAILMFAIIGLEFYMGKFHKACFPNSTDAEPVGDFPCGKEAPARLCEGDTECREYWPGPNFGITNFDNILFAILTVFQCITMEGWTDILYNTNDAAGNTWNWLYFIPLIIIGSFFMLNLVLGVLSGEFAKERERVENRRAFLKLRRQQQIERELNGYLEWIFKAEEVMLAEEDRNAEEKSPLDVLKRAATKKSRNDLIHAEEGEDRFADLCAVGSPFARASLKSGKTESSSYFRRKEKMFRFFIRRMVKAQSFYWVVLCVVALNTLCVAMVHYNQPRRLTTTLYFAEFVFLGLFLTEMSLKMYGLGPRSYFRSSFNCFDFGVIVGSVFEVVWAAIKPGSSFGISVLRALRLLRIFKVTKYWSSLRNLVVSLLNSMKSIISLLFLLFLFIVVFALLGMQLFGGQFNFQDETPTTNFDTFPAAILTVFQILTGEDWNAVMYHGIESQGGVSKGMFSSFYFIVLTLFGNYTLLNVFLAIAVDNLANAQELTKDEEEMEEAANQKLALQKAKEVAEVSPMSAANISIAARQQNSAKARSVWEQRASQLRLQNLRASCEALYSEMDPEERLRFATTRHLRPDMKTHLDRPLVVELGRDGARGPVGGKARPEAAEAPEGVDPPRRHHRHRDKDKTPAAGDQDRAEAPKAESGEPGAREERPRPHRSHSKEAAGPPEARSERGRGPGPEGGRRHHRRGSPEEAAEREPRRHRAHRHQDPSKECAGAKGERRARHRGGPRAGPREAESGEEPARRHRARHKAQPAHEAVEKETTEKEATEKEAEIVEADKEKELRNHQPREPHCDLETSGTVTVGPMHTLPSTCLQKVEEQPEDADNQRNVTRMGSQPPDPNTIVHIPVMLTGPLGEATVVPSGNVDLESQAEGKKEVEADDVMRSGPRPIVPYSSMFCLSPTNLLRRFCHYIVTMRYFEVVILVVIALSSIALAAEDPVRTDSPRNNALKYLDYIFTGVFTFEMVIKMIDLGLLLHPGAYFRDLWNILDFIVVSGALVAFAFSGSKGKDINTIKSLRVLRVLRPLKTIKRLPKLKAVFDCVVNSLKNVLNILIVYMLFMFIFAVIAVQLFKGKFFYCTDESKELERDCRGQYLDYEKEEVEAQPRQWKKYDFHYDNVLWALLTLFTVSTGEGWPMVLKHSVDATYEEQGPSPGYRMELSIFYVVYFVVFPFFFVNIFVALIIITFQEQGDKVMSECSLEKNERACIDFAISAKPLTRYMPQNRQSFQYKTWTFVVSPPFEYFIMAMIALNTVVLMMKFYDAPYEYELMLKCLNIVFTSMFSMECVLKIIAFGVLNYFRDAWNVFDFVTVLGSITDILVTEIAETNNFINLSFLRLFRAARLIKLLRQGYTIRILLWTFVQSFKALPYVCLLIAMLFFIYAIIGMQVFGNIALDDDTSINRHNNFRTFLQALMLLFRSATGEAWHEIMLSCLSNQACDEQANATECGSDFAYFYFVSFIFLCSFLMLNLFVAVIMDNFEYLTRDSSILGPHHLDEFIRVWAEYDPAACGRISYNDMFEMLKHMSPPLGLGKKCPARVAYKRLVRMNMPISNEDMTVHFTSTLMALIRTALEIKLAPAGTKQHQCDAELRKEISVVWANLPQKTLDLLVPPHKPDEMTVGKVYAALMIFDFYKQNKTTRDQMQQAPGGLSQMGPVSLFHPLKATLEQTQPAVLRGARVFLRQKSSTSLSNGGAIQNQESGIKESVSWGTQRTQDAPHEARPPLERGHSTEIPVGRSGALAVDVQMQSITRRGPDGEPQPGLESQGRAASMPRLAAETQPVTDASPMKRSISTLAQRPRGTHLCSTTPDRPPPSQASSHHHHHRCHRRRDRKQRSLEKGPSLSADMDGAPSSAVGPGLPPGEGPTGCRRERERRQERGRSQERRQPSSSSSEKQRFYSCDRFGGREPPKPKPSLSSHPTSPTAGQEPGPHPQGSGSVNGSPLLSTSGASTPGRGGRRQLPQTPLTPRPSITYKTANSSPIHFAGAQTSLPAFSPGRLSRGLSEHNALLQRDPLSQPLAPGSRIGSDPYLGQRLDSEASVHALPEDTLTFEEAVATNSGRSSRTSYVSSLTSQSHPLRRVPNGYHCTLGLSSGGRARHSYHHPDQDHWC
T7 sequence (Q02410 whole entry): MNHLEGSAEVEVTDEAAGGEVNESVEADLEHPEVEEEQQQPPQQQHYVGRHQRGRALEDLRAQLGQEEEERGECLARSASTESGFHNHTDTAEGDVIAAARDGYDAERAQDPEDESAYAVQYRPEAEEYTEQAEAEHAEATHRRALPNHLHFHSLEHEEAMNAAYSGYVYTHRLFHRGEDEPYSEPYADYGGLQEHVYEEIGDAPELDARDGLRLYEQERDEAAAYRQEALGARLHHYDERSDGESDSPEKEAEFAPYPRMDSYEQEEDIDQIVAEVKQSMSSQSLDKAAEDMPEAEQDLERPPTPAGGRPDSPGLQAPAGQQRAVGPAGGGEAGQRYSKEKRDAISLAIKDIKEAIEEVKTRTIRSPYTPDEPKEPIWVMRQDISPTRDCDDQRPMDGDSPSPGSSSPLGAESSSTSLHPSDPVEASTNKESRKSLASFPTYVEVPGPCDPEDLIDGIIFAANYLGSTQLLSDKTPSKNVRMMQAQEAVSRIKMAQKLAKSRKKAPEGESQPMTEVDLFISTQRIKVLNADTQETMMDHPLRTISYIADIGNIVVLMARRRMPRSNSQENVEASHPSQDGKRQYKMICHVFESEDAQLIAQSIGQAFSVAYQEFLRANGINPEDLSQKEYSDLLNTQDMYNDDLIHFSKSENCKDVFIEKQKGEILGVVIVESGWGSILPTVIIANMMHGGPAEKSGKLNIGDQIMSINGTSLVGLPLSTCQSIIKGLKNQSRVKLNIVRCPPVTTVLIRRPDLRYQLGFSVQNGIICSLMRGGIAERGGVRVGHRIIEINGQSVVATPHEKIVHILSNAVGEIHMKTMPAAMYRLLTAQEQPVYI
Trypsin, sequence (P00761 whole entry): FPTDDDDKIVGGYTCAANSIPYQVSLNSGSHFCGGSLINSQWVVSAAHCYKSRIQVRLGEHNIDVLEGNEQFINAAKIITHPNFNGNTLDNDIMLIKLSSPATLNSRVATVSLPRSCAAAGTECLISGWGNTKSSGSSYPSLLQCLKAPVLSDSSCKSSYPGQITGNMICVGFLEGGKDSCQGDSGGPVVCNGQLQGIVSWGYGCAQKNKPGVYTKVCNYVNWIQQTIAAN

O=[N+]([O-])c1nn(-c2ccc3c(c2)OCCO3)[n+]([O-])c1Nc1ccccc1
EC50 [1]: 0.098 µM (active)
EC50 [2]: < 0.1 µM (active)
EC50 (cells [3]): 4.89 µM (active)
EC50 [4]: < 0.1 µM (active)
EC50 [5]: 0.09 µM (active)
EC50 [6]: < 0.1 µM (active)
EC50 [7]: < 0.16 µM (active)
IC50 [8]: > 80 µM (inactive)

CCCCOc1nc2ccccc2c(=O)n1-c1ccccc1
IC50 [9]: 8.15 µM (active)
IC50 [10]: 13.2 µM (not active)

N=c1n(CCN2CCCCC2)c2ccccc2n1CC(=O)c1ccc(Cl)c(Cl)c1
CC50 [11]: 11.9 µM (active)
IC50 (cells [12]): 23.9 µM (active)
CC50 [13]: 18.2 µM (active)

O=C1OCCN1C(=O)[C@H]1[C@H](c2ccc(F)cc2)C(c2ccc(F)cc2)=NN1c1ccc(Br)cc1
AC50 (Trypsin): 14.1 µM (active)

CNc1nnc(-c2ccc(N(C)C)cc2)s1
EC50 (HT-1080): > 50 µM (not active)
IC50 [14]: 99.3 µM (active)
EC50 [15]: 2.54 µM (active)

Cc1ccc(NC(=O)C(=O)NCCOc2ccc(Cl)cc2)c(C)c1
IC50 [9]: 7.41 µM (active)
IC50 [10]: 7.39 µM (active)

O=C(Nc1nc2cc3c(cc2s1)OCCO3)C1=COCCO1
AC50 [16]: 2.17 µM (active)
EC50 [17]: 5.65 µM (active)
EC50 [1]: 0.432 µM (active)
EC50 [2]: < 0.1 µM (active)
EC50 (cells [3]): 0.669 µM (active)
EC50 [18]: 1.58 µM (active)
EC50 [4]: < 0.1 µM (active)
EC50 [5]: 0.411 µM (active)
AC50 [19]: 18.1 µM (active)
EC50 [6]: < 0.1 µM (active)
EC50 [7]: 1.74 µM (active)

O=C(NC1=NCCS1)c1cc2ccccc2o1
AC50 (HEK293): 3.65 µM (active)
EC50 (HT-1080): > 50 µM (not active)
EC50 [15]: 59.1 µM (active)

CSCCC(C(=O)NC1=NCCS1)N1C(=O)c2ccccc2C1=O (stereo not drawn)
IC50 (Aminopeptidase N): 17.8 µM (active)

O=C(NCc1ccc2c(c1)OCO2)C1CCCN1C(=O)Nc1cccc(F)c1 (stereo not drawn)
IC50 (Aminopeptidase N): 75 µM (active)

O=C(O)c1ccc(Nc2nc(-c3cc4ccccc4oc3=O)cs2)cc1O
IC50 (Aminopeptidase N): 9.7 µM (active)
IC50 [20]: 7.29 µM (active)
IC50 [21]: > 50 µM (inactive)

c1ccc(-c2noc(-c3cccs3)n2)nc1
EC50 (HT-1080): > 50 µM (not active)
EC50 [15]: > 100 µM (not active)

Cc1nc(-c2ccccc2)sc1C(=O)CSc1ccc(Cl)cc1
IC50 [9]: 6.99 µM (active)
IC50 [22]: 11.7 µM (not active)
IC50 [10]: 5.4 µM (active)
